pIC50: −log10 of the molar value.
Assays:
[1] = tested on: HeLa; assay: Cytotoxicity against human HeLa cells at 30 uM after 48 hrs by MTT assay relative to control; format: functional
[2] = tested on: A549; assay: Cytotoxicity against human A549 cells after 72 hrs by MTT assay; format: functional, cell-based; conditions: A549, 72 h
[3] = tested on: HCT-116; assay: Cytotoxicity against human HCT116 cells after 72 hrs by MTT assay; format: functional, cell-based; conditions: HCT-116, 72 h
[4] = tested on: A549; assay: Cytotoxicity against human A549 cells at 30 uM after 48 hrs by MTT assay relative to control; format: functional
[5] = tested on: HCT-15; assay: Cytotoxicity against human HCT15 cells after 72 hrs by MTT assay; format: functional, cell-based; conditions: HCT-15, 72 h
[6] = tested on: NCI-H460; assay: Cytotoxicity against human NCI-H460 cells after 72 hrs by MTT assay; format: functional, cell-based; conditions: NCI-H460, 72 h
[7] = tested on: MDA-MB-231; assay: Cytotoxicity against human MDA-MB-231 cells at 30 uM after 48 hrs by MTT assay relative to control; format: functional
[8] = tested on: HCT-116; assay: Cytotoxicity against human HCT116 cells at 30 uM after 48 hrs by MTT assay relative to control; format: functional
[9] = tested on: MDA-MB-231; assay: Cytotoxicity against human MDA-MB-231 cells after 72 hrs by MTT assay; format: functional, cell-based; conditions: MDA-MB-231, 72 h
[10] = tested on: HCT-15; assay: Cytotoxicity against human HCT15 cells at 30 uM after 48 hrs by MTT assay relative to control; format: functional
[11] = tested on: NCI-H460; assay: Cytotoxicity against human NCI-H460 cells at 30 uM after 48 hrs by MTT assay relative to control; format: functional
[12] = tested on: HeLa; assay: Cytotoxicity against human HeLa cells after 72 hrs by MTT assay; format: functional, cell-based

Structure (SMILES) | Activity [1] [%] | pIC50 [2] | pIC50 [3] | Activity [4] [%] | pIC50 [5] | pIC50 [6] | Activity [7] [%] | Activity [8] [%] | pIC50 [9] | Activity [10] [%] | Activity [11] [%] | pIC50 [12]
CCOC(=O)/C(=C(\N)C(=O)c1ccccc1)C1C(=O)N(Cc2ccccc2)c2ccc(Br)cc21 (stereo unspecified) | >50 | 4.56 | 4.54 | >50 | 4.58 | 4.73 | >50 | >50 | 4.55 | >50 | >50 | 4.59
COC(=O)/C(=C(\N)C(=O)c1ccccc1)C1C(=O)Nc2ccc(Br)cc21 (stereo unspecified) | >50 | 4.89 | 4.59 | >50 | 4.55 | 4.56 | >50 | >50 | 5.16 | >50 | >50 | 4.91
CCOC(=O)/C(=C(\N)C(=O)c1ccccc1)C1C(=O)N(Cc2ccc(Br)cc2)c2ccccc21 (stereo unspecified) | >50 | 5.49 | 5.49 | >50 | 5.50 | 5.41 | >50 | >50 | 5.15 | >50 | >50 | 5.14
COC(=O)/C(=C(\N)C(=O)c1ccccc1)C1C(=O)N(Cc2ccccc2)c2ccc(C)cc21 (stereo unspecified) | >50 | 5.18 | 5.48 | >50 | 5.57 | 5.82 | >50 | >50 | 4.86 | >50 | >50 | 5.20
O=c1[nH]cc(F)c(=O)[nH]1 [FLUOROURACIL] |  | 5.37 | 4.94 |  | 4.93 | 4.93 |  |  | 4.68 |  |  | 4.97
CCOC(=O)/C(=C(\N)C(=O)c1ccc(OC)cc1)C1C(=O)N(Cc2ccccc2)c2ccc(Cl)cc21 (stereo unspecified) | >50 | 5.49 | 5.42 | >50 | 5.50 | 5.48 | >50 | >50 | 5.16 | >50 | >50 | 5.43
